In the test the target is T1, full length human TPH1 (Homo sapiens, UniProt P17752).
T1 construct: To generate the enzyme, full length human TPH1 is cloned into the plasmid pET20b(+); made in house; host or cells: E. coli
T1 sequence (P17752 1-444): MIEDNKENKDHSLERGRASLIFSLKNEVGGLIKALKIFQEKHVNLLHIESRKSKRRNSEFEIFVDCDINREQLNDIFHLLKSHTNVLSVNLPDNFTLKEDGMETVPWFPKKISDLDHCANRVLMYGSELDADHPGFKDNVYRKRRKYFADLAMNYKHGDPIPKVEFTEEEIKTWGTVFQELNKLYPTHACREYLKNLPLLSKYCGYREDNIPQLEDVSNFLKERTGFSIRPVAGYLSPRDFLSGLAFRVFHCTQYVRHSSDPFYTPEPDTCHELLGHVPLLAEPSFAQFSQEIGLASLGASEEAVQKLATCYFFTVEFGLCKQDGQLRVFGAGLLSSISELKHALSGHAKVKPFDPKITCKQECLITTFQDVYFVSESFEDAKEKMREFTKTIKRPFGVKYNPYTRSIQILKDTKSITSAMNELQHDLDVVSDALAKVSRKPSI
In words: Biochemical in vitro assay using fluorescence readout (TPH1 enzyme activity). As to conditions: Table 1, mean where determined several times. The essentials:
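E. coli-expressed full-length human TPH1 (40-80 nM), affinity- and size-exclusion-purified, incubated 60 min at 15° C. in 0.1M Tris-HCl pH 7.6 with 1 mM DTT, 0.2 mg/ml catalase, 100 μM 6-methyltetrahydropterine and 40 μM L-tryptophan. 5-Hydroxy-L-tryptophan read by fluorescence (ex 300/em 540 nm) after HClO4 quench; IC50 versus vehicle, mean where repeated.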
What is called IC50 is the midpoint of a concentration-inhibition curve. A lower IC50 goes with greater potency in that assay. `CC(=O)N1CCn2c(nc3c2C(c2ccc(C4CC4)cc2F)N(C(=O)COc2cccnc2Cl)CC3)C1` (stereo not shown) [Example 5.2.14, 1-(7-acetyl-1-(4-cyclopropyl-2-fluorophenyl)-3,4,6,7,8,9-hexahydropyrido[4′,3′:4,5]imidazo[1,2-a]pyrazin-2(1H)-yl)-2-((2-chloropyridin-3-yl)oxy)ethanone] showed a 50% inhibitory concentration (IC50) of 28 nM.

In turn, `O=C(COc1ccc(C2CC2)nc1Cl)N1CCc2nc3n(c2C1c1ccc(Cl)cc1F)CCCC3` (stereo not shown) [Example 1.1.14, 1-(1-(4-chloro-2-fluorophenyl)-3,4,6,7,8,9-hexahydroimidazo[1,2-a:5,4-c′]dipyridin-2(1H)-yl)-2-((2-chloro-6-cyclopropylpyridin-3-yl)oxy)ethanone] had an IC50 of 16 nM. Against the preceding molecule, the IC50 is about 1.8-fold lower.

Regarding `CC(=O)N1CCn2c(nc3c2C(c2ccc(C4CC4)cc2F)N(C(=O)COc2ccc(N4CC(F)(F)C4)nc2Cl)CC3)C1` (stereo not shown) [Example 5.2.12, 1-(7-acetyl-1-(4-cyclopropyl-2-fluorophenyl)-3,4,6,7,8,9-hexahydropyrido[4′,3′:4,5]imidazo[1,2-a]pyrazin-2(1H)-yl)-2-((2-chloro-6-(3,3-difluoroazetidin-1-yl)pyridin-3-yl)oxy)ethanone], the concentration for half-maximal inhibition (IC50) was 6 nM. As for `CC(=O)N1CCn2c(nc3c2C(c2ncc(C)cc2F)N(C(=O)COc2ccc(N4CCOCC4)nc2Cl)CC3)C1` (stereo not shown) [Example 5.8.1, 1-(7-acetyl-1-(3-fluoro-5-methylpyridin-2-yl)-3,4,6,7,8,9-hexahydropyrido[4′,3′:4,5]imidazo[1,2-a]pyrazin-2(1H)-yl)-2-((2-chloro-6-morpholinopyridin-3-yl)oxy)ethanone], the IC50 was found to be 11 nM. For `CCc1nc(NS(C)(=O)=O)ccc1OCC(=O)N1CCc2nc3n(c2C1c1ccc(Cl)cc1F)CCC3` (stereo not shown) [Example 2.1.2, N-(5-(2-(1-(4-chloro-2-fluorophenyl)-3,4,7,8-tetrahydro-1H-pyrrolo[2′,1′:2,3]imidazo[4,5-c]pyridin-2(6H)-yl)-2-oxoethoxy)-6-ethylpyridin-2-yl)methanesulfonamide], half-maximal inhibition (IC50) required 13 nM. As to `Cc1nc(C)c(C2c3c(nc4n3CCCC4)CCN2C(=O)COc2ccc(C(=O)N(C)C)nc2Cl)s1` (stereo not shown) [Example 1.10.5, 6-chloro-5-(2-(1-(2,4-dimethylthiazol-5-yl)-3,4,6,7,8,9-hexahydroimidazo[1,2-a:5,4-c′]dipyridin-2(1H)-yl)-2-oxoethoxy)-N,N-dimethylpicolinamide], the IC50 turned out to be 85 nM. `COC(C)(C)c1ccc(C2c3c(nc4n3CCCC4)CCN2C(=O)COc2ccc(C(=O)NC3CC3)nc2Cl)c(F)c1` (stereo not shown) [Example 1.25.1, 6-chloro-N-cyclopropyl-5-(2-(1-(2-fluoro-4-(2-methoxypropan-2-yl)phenyl)-3,4,6,7,8,9-hexahydroimidazo[1,2-a:5,4-c′]dipyridin-2(1H)-yl)-2-oxoethoxy)picolinamide] showed an IC50 of 68 nM. This IC50 and that of the molecule before are within 1.5-fold of each other.

`Cc1nc(C)c(C2c3c(nc4n3CCCC4)CCN2C(=O)COc2ccc(N(C)S(C)(=O)=O)nc2Cl)s1` (stereo not shown) [Example 1.10.12, N-(6-chloro-5-(2-(1-(2,4-dimethylthiazol-5-yl)-3,4,6,7,8,9-hexahydroimidazo[1,2-a:5,4-c′]dipyridin-2(1H)-yl)-2-oxoethoxy)pyridin-2-yl)-N-methylmethanesulfonamide] had an IC50 of 20 nM. Against the preceding molecule, the IC50 is about 3.4-fold lower. As to `CN(C)C(=O)c1ccc(OCC(=O)N2CCc3nc4n(c3C2c2ccc(C3CC3)cc2F)CCOC4)c(Cl)n1` (stereo not shown) [Example 6.2.3, 6-chloro-5-(2-(6-(4-cyclopropyl-2-fluorophenyl)-3,4,8,9-tetrahydro-1H-pyrido[4′,3′:4,5]imidazo[2,1-c][1,4]oxazin-7(6H)-yl)-2-oxoethoxy)-N,N-dimethylpicolinamide], it took 3 nM to reach half-maximal inhibition (IC50). Compared with the last molecule, the IC50 is about 6.7-fold lower. Molecule `CCc1nc(NS(C)(=O)=O)ccc1OCC(=O)N1CCc2nc3n(c2[C@@H]1c1ccc(Cl)cc1F)CCS3` [Example 4.1.15, (S)-N-(5-(2-(5-(4-chloro-2-fluorophenyl)-2,3,7,8-tetrahydrothiazolo[2′,3′:2,3]imidazo[4,5-c]pyridin-6(5H)-yl)-2-oxoethoxy)-6-ethylpyridin-2-yl)methanesulfonamide] returned an IC50 of 6 nM. Compared with the last molecule, the IC50 is about 2-fold higher.

In turn, `CN(C)C(=O)c1ccc(OC2(C(=O)N3CCc4nc5n(c4C3c3ccc(Cl)cc3F)CCCC5)CC2)c(Cl)n1` (stereo not shown) [Example 1.1.26, 6-chloro-5-(1-(1-(4-chloro-2-fluorophenyl)-1,2,3,4,6,7,8,9-octahydroimidazo[1,2-a:5,4-c′]dipyridine-2-carbonyl)cyclopropoxy)-N,N-dimethylpicolinamide] came in with an IC50 of 51 nM. For the molecule `Cc1cnc(C2c3c(nc4n3CCCC4)CCN2C(=O)COc2ccc(C(=O)N(C)C)nc2Cl)c(F)c1` (stereo not shown) [Example 1.6.4, 6-chloro-5-(2-(1-(3-fluoro-5-methylpyridin-2-yl)-3,4,6,7,8,9-hexahydroimidazo[1,2-a:5,4-c′]dipyridin-2(1H)-yl)-2-oxoethoxy)-N,N-dimethylpicolinamide], half-maximal inhibition (IC50) required 33 nM. This IC50 lies about 1.5-fold lower than the previous one.

Molecule `CC(=O)N1CCn2c(nc3c2C(c2ncc(C)cc2F)N(C(=O)COc2ccc(N4CC(F)(F)C4)nc2Cl)CC3)C1` (stereo not shown) [Example 5.8.2, 1-(7-acetyl-1-(3-fluoro-5-methylpyridin-2-yl)-3,4,6,7,8,9-hexahydropyrido[4′,3′:4,5]imidazo[1,2-a]pyrazin-2(1H)-yl)-2-((2-chloro-6-(3,3-difluoroazetidin-1-yl)pyridin-3-yl)oxy)ethanone] registered a 50% inhibitory concentration (IC50) of 51 nM. On to `CCc1cc(F)ccc1OCC(=O)N1CCc2nc3n(c2C1c1ncc(C2CC2)cc1F)CCNC3` (stereo not shown) [Example 5.4.4, 1-(1-(5-cyclopropyl-3-fluoropyridin-2-yl)-3,4,6,7,8,9-hexahydropyrido[4′,3′:4,5]imidazo[1,2-a]pyrazin-2(1H)-yl)-2-(2-ethyl-4-fluorophenoxy)ethanone], for which the IC50 stood at 329 nM. `CCc1nc(NS(C)(=O)=O)ncc1OCC(=O)N1CCc2nc3n(c2C1c1ccc(C2CC2)cc1F)CCS3` (stereo not shown) [Example 4.3.4, N-(5-(2-(5-(4-cyclopropyl-2-fluorophenyl)-2,3,7,8-tetrahydrothiazolo[2′,3′:2,3]imidazo[4,5-c]pyridin-6(5H)-yl)-2-oxoethoxy)-4-ethylpyrimidin-2-yl)methanesulfonamide] returned an IC50 of 25 nM. In turn, `O=C(COc1ccc(N2CCCS2(=O)=O)nc1Cl)N1CCc2nc3n(c2C1c1ccc(Cl)cc1F)CCS3` (stereo not shown) [Example 4.1.2, 1-(5-(4-chloro-2-fluorophenyl)-2,3,7,8-tetrahydrothiazolo[2′,3′:2,3]imidazo[4,5-c]pyridin-6(5H)-yl)-2-((2-chloro-6-(1,1-dioxidoisothiazolidin-2-yl)pyridin-3-yl)oxy)ethanone] gave an IC50 of 7 nM. The molecule `Cc1ccc(C2c3c(nc4n3CCCC4)CCN2C(=O)COc2ccc(C(F)(F)F)cc2Cl)c(F)c1F` (stereo not shown) [Example 1.9.5, 2-(2-chloro-4-(trifluoromethyl)phenoxy)-1-(1-(2,3-difluoro-4-methylphenyl)-3,4,6,7,8,9-hexahydroimidazo[1,2-a:5,4-c′]dipyridin-2(1H)-yl)ethanone] showed an IC50 of 87 nM. The molecule `O=C(NC1CC1)c1ccc(OCC(=O)N2CCc3nc4n(c3C2c2ccc(Cl)cc2F)CCCC4)c(C2CC2)n1` (stereo not shown) [Example 1.1.22, 5-(2-(1-(4-chloro-2-fluorophenyl)-3,4,6,7,8,9-hexahydroimidazo[1,2-a:5,4-c′]dipyridin-2(1H)-yl)-2-oxoethoxy)-N,6-dicyclopropylpicolinamide] registered an IC50 of 10 nM. In turn, `O=C(COc1ccc(N2CCOCC2)nc1Cl)N1CCc2nc3n(c2C1c1ccc(C2CC2)cc1F)CCOC3` (stereo not shown) [Example 6.2.1, 2-((2-chloro-6-morpholinopyridin-3-yl)oxy)-1-(6-(4-cyclopropyl-2-fluorophenyl)-3,4,8,9-tetrahydro-1H-pyrido[4′,3′:4,5]imidazo[2,1-c][1,4]oxazin-7(6H)-yl)ethanone] displayed a half-maximal inhibitory concentration (IC50) of 4 nM. Then `O=C(COc1ccc(N2CCCS2(=O)=O)nc1Cl)N1CCc2nc3n(c2[C@@H]1c1ccc(Cl)cc1F)CCS3` [Example 4.1.16, (S)-1-(5-(4-chloro-2-fluorophenyl)-2,3,7,8-tetrahydrothiazolo[2′,3′:2,3]imidazo[4,5-c]pyridin-6(5H)-yl)-2-((2-chloro-6-(1,1-dioxidoisothiazolidin-2-yl)pyridin-3-yl)oxy)ethanone], with 6 nM; and `CC(=O)N1CCn2c(nc3c2C(c2cc(Cl)ccn2)N(C(=O)COc2ccc(N4CCOCC4)nc2Cl)CC3)C1` (stereo not shown) [Example 5.16.1, 1-(7-acetyl-1-(4-chloropyridin-2-yl)-3,4,6,7,8,9-hexahydropyrido[4′,3′:4,5]imidazo[1,2-a]pyrazin-2(1H)-yl)-2-((2-chloro-6-morpholinopyridin-3-yl)oxy)ethanone], with 48 nM. In turn, `CCc1nc(C(=O)NC2CC2)ccc1OCC(=O)N1CCc2nc3n(c2C1c1ccc(Cl)cc1F)CCS3` (stereo not shown) [Example 4.1.9, 5-(2-(5-(4-chloro-2-fluorophenyl)-2,3,7,8-tetrahydrothiazolo[2′,3′:2,3]imidazo[4,5-c]pyridin-6(5H)-yl)-2-oxoethoxy)-N-cyclopropyl-6-ethylpicolinamide] displayed a half-maximal inhibitory concentration (IC50) of 31 nM.
